Source: publication PMC6274786 (International Journal of Molecular Sciences, 2018)
“Also recorded” adds a separate entry of the source. Like-named read-outs stand apart in the source and are kept apart here.

What was measured:
[1] = test system: Hepatoma HepG2 cell line; experiment: Antiproliferative assay (MTS), HepG2; format: cell-based; conditions: 72 h incubation
Description: (§1) Human embryonic kidney (HEK)-293 cell line (ATCC CRL-1573) was kindly donated by Prof. Dr. […] (Pharmaceutical Institute, Pharmaceutical Chemistry I, University of Bonn). Hepatoma HepG2 (ATCC HB-8065) cell line was kindly donated by the Department of Pharmacological Screening, Jagiellonian University Medical College. The cell cultures' growth conditions in presence of H3R antagonist 4 were applied as described before. The cells' viability was assessed after 72 h of incubation with H3R antagonist and the following references: doxorubicin (Sigma-Aldrich) and carbonyl cyanide 3-chlorophenylhydrazone (CCCP) (Sigma-Aldrich). CellTiter 96® AQueous non-radioactive cell proliferation assay (MTS) was purchased from Promega® and added to each well in the volume of 20 μL. The cells were then incubated for 2-5 h. The microplate reader EnSpire (PerkinElmer Ltd., Waltham, MA, USA) was used to measure the absorbance at 490 nm.

[2] = test system: HEK-293 cell line; experiment: Antiproliferative assay (MTS), HEK-293; format: cell-based, human; conditions: 72 h incubation
Description: as §1

[3] = biological target: CYP2D6 (Homo sapiens, UniProt P10635); experiment: Luminescent CYP2D6 P450-Glo assay
Description: The metabolic interactions of H3R antagonist 4 were determined by the luminescent P450-Glo™ 3A4 and 2D6 assays purchased from Promega®. All enzymatic reactions were performed according to the manufacturer protocols and as previously described. […] The luminescence was measured with a microplate reader EnSpire (PerkinElmer). The final concentration of H3R antagonist 4 was in the range of 0.1–25 µM, whereas reference inhibitory effects ranged from 0.01 µM to 10 µM. The IC50 values’ calculations were performed by GraphPad Prism™ software (version 5.01, San Diego, CA, USA).

[4] = biological target: T1, hH4R (Homo sapiens, UniProt Q9H3N8); experiment: H4R radioligand displacement assay, Sf9 cell membrane preparations; format: binding
T1 construct: expressed in transfected cells; host or cells: Sf9 insect cells (membrane preparations)
Description: H4R radioligand displacement assays were performed with Sf9 cell membrane preparations, expressing the hH4R, as described previously. Assays ran in triplicates with four appropriate concentrations of the test compound. Data were analyzed by GraphPad Prism 7, using the “one-site competition” equation.

[5] = test system: STR-induced seizure; experiment: Strychnine (STR)-induced seizure; format: in vivo, Wistar rats; conditions: 10 mg/kg i.p.; for STR-Induced Seizure (protection class): STR 3.5 mg/kg
Description: (§2) In this study and according to previously used protocols, two chemical agents have been used to induce seizures, namely pentylenetetrazole (PTZ, 60 mg/kg, i.p.) and strychnine (STR, 3.5 mg/kg, i.p.). PTZ 60 mg/kg or STR 3.5 mg/kg were administered i.p. to all groups of seven rats (n = 7), that is, animals pretreated with vehicle or test compounds 1–16. Vehicle, VPA (300 mg/kg, i.p.), [26, 47, 48, 49] or test compounds 1–16 (10 mg/kg, i.p.) were systemically administered 30–45 min before PTZ (60 mg/kg, i.p.) or STR (3.5 mg/kg, i.p.) injection, and animals were directly observed for any signs of convulsion for a duration of 30 min. The observed scores as well as percent protection against generalized tonic-clonic seizure (GTCS) were graded and scaled according to the Racine scale (stage 0, no change in behavior; stage 1, stereotype mouthing, eye blinking, and/or mild facial clonus; stage 2, head nodding and/or severe facial clonus; stage 3, myoclonic jerk in forelimbs; stage 4, clonic convulsions in the forelimbs with rearing; stage 5, generalized colonic convulsions associated with loss of balance) to evaluate the protection provided by the respective test compound against seizures. The animals were divided into eighteen groups of seven rats (n = 7) and treated as follows.
(§3) (1) Control group injected with vehicle + PTZ (SAL group), (2) positive control group in which rats were injected with VPA (300 mg/kg) + PTZ (VPA group), and animals in the test groups (3)–(18) were systemically administered with test compounds 1–16 (10 mg/kg), respectively. An additional PTZ experiment was conducted using three different groups of seven rats (n = 7), the H3R ligand with the most promising protection in PTZ model was administered at doses of 2.5, 5, or 15 mg/kg, i.p. 30–45 min before the PTZ challenge. […] The same experimental procedure was followed in the STR-induced seizure model applying the reference drug VPA, which was used at a dose of 300 mg/kg, i.p. (Figure 3, Table 2).

[6] = biological target: T2, human H1 receptor (Homo sapiens, UniProt P35367); experiment: Radioligand binding, membranes from CHO-K1 cells
T2 construct: purchased PerkinElmer; host or cells: CHO-K1 cells, stably transfected (membranes)
Description: Radioligand binding was performed as previously described using membranes from CHO-K1 cells stably transfected with the human H1 receptor (PerkinElmer., Waltham, MA, USA). Data were fitted to a one-site curve-fitting equation with Prism 6 (GraphPad Software, city, state, country) and Ki values were estimated from the Cheng–Prusoff equation [44].

[7] = test system: MES-induced seizure; experiment: Maximal electroshock (MES)-induced seizure; format: in vivo, Wistar rats; conditions: for MES-Induced Seizure (protection class): 50 Hz, 120 mA, 1 s
Source text: As previously described, the seizures were induced in rats with a 50 Hz alternating current of 120 mA intensity. The current was applied through ear electrodes for 1 s. Protection against the spread of MES-induced seizure was defined as the abolition of the tonic hind limb extension (THLE) component of the seizure. For the first screening of protective effects of test compounds 1–16 in the MES-induced seizure model, the animals were divided into eighteen groups of seven rats (n = 7) as follows; group (1) control group injected with vehicle (SAL), group (2) positive control group in which rats were injected with PHT at a dose of 10 mg/kg (this being the minimal dose of PHT that protected animals against the spread of MES-induced seizures without mortality), and groups (3)–(18) animals in the experimental groups were administered H3R antagonists 1–16 at a dose of 10 mg/kg. In another MES experiment in three separate groups of six rats (n = 6), H3R antagonist 4 with the most promising protection in MES model was administered at doses of 2.5, 5, or 15 mg/kg, i.p. 30–45 min before the MES challenge.

[8] = test system: PTZ-induced seizure; experiment: Pentylenetetrazole (PTZ)-induced seizure; format: in vivo, Wistar rats; conditions: for PTZ-Induced Seizure (protection class): PTZ 60 mg/kg
Description: as §2, §3

[9] = Metabolic stability in rat liver microsomes; format: in vitro ADME; conditions: RLMs, MS ion fragment analysis, metabolite M-I
Description: Rat liver microsomes (RLMs) purchased form Sigma-Aldrich (St. Louis, MO, USA) were used for in vitro determination of compound 4’s metabolic stability. The NADPH regeneration system was purchased from Promega (Madison, WI, USA). All experiments were performed as described before. The reaction mixture was preincubated at 37 °C for 5 min, and then the reaction was started by adding 50 µL of NADPH regeneration system. The reaction was ended after 120 min by the addition of cold methanol (200 µL). The mixture was then centrifuged at 14,000 rpm for 15 min and the ultra-performance liquid chromatography–mass spectrometry (UPLC/MS) analysis of the supernatant was conducted. Ion fragment analyses were also performed for metabolic pathways’ determination.

[10] = biological target: T3, human histamine H3R (Homo sapiens, UniProt Q9Y5N1); experiment: [3H]Nα-methylhistamine radioligand displacement assay, HEK-293 cell membranes; format: binding
T3 construct: expressed in transfected cells
Description: As described previously, the affinity for the human histamine H3R was tested utilizing radioligand displacement assays with [^3H]N^α-methylhistamine at membrane preparations from human embryonic kidney (HEK)-293 cells, stably expressing the receptor. […] The analysis of data was conducted by the software GraphPad Prism 7 (San Diego, CA, USA), using the “one-site competition” equation. Ki values were calculated from the 50 percent of inhibitory concentration (IC50) values according to the Cheng-Prusoff equation [44]

[11] = 10 mg/kg i.p. co-administered with RAMH 10 mg/kg i.p.

CYP2D6, sequence (P10635 whole entry): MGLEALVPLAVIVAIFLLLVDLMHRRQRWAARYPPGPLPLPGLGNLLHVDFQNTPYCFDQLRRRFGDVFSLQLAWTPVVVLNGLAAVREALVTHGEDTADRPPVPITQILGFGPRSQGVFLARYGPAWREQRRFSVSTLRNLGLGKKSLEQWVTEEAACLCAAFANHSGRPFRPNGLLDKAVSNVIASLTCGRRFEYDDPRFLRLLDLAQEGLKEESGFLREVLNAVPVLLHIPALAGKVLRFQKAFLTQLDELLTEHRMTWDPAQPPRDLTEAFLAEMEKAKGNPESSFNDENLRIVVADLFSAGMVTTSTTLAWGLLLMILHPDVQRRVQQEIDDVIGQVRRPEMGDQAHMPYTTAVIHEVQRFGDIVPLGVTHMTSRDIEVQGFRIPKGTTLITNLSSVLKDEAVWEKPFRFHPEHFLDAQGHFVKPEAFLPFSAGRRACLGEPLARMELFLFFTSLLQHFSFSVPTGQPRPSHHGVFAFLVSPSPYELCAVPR
T2 sequence (P35367 whole entry): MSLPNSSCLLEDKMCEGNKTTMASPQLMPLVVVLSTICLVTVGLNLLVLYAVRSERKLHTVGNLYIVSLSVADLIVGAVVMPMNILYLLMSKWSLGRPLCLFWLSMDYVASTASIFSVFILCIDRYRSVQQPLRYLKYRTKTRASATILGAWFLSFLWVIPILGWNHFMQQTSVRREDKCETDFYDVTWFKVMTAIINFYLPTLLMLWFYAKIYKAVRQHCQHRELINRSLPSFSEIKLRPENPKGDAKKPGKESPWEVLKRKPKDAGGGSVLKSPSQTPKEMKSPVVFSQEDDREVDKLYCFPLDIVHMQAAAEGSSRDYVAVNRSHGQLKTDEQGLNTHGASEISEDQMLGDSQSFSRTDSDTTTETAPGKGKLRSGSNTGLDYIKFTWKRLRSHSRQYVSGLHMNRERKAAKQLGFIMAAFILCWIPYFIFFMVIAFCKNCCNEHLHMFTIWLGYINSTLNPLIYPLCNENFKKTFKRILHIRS
T1 sequence (Q9H3N8 whole entry): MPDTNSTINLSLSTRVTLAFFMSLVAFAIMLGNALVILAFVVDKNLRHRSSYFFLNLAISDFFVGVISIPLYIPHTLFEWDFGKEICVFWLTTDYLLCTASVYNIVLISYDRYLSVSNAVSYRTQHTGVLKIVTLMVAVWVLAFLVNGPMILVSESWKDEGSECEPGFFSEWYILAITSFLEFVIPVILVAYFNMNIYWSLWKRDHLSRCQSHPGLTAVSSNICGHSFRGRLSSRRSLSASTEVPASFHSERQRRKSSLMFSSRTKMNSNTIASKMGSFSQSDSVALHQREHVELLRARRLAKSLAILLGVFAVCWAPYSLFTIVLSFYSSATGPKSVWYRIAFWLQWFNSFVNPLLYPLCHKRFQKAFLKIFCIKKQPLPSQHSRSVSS
T3 sequence (Q9Y5N1 whole entry): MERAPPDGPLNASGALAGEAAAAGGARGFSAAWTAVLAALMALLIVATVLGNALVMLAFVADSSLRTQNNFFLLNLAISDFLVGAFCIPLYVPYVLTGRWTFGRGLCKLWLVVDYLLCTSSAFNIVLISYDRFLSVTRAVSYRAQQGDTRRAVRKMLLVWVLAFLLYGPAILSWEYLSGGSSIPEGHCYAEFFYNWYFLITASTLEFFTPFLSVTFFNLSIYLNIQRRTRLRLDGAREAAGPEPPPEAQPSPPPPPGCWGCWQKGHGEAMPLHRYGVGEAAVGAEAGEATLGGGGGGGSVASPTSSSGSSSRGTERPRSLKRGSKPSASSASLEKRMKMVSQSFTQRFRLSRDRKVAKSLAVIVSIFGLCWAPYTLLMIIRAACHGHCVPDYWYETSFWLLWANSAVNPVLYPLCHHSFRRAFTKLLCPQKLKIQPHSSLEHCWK

Compound: N#CC(C#N)=NNc1cccc(Cl)c1 [CCCP, carbonyl cyanide 3-chlorophenylhydrazone, reference compound]
- concentration with significant decrease of HepG2 proliferation/viability [1]: 10 µM

Compound: COc1cccc2c1C(=O)c1c(O)c3c(c(O)c1C2=O)C[C@@](O)(C(=O)CO)C[C@@H]3O[C@H]1C[C@H](N)[C@H](O)[C@H](C)O1 [DX, doxorubicin]
- concentration with significant decrease of HEK-293 proliferation/viability [2]: 1 µM

Compound: O=C(O)C(=O)O.c1ccc2cc(OCCCCCCN3CCCCCC3)ccc2c1 [Ligand 4, 1-(6-(naphthalen-2-yloxy)hexyl)azepane hydrogen oxalate]
- IC50 [3]: 670 nM
- fold higher CYP2D6 IC50 compared with reference drug QD [3]: 67 fold
- Ki [4]: > 10 µM
- STR-Induced Seizure % Protection against GTCS [5]: 28.57%
- STR-Induced Seizure Average Seizure Score [5]: 4.57 ± 0.19
- protective effect in STR-induced seizure (in words) ([5]; 30 min observation, vs saline-treated group): failed to provide any appreciable protection; also recorded: failed to exhibit appreciable protection
- STR-Induced Seizure (protection class) [5]: −
- Ki [6]: 1270 nM
- fold lower affinity at hH1- and H4Rs than at H3R ([6]; selectivity toward H3Rs): at least 10 fold
- MES-Induced Seizure Average THLE ([7]; 2.5 mg/kg i.p.): 5.83 ± 1.01 s
- MES-Induced Seizure Average THLE (s) ([7]; 5 mg/kg i.p.): 2.50 ± 1.21 **^,# s
- MES-Induced Seizure Average THLE (s) ([7]; 10 mg/kg i.p.): 0.57 ± 0.21 **^,$ s
- MES-Induced Seizure Average THLE [7, 11]: 6.17 ± 0.59 s
- protective effect in MES-induced seizure (in words) ([7]; 10 mg/kg i.p., vs saline-treated group): most promising protective effect
- MES-Induced Seizure (protection class) ([7]; 10 mg/kg i.p.): ++ (high protective effect (THLE duration <1, seizure score 0))
- MES-Induced Seizure Average THLE (s) ([7]; 15 mg/kg i.p.): 3.67 ± 0.94 **^,# s
- concentration with significant decrease of HepG2 proliferation/viability [1]: 100 µM
- PTZ-Induced Seizure % Protection against GTCS ([8]; 2.5 mg/kg i.p.): 100%
- PTZ-Induced Seizure Average Seizure Score ([8]; 2.5 mg/kg i.p.): 2.29 ± 0.44
- PTZ-Induced Seizure % Protection against GTCS ([8]; 5 mg/kg i.p.): 100%
- PTZ-Induced Seizure Average Seizure Score ([8]; 5 mg/kg i.p.): 0.71 ± 0.31 **^,#
- PTZ-Induced Seizure % Protection against GTCS ([8]; 10 mg/kg i.p.): 100%
- PTZ-Induced Seizure Average Seizure Score ([8]; 10 mg/kg i.p.): 0.00 ± 0.00 ^&
- PTZ-Induced Seizure % Protection against GTCS [8, 11]: 100%
- PTZ-Induced Seizure Average Seizure Score [8, 11]: 0.29 ± 0.16
- protective effect in PTZ-induced seizure (in words) ([8]; 10 mg/kg i.p., observed over 30 min, vs saline-treated group): full protective activities
- PTZ-Induced Seizure (protection class) ([8]; 10 mg/kg i.p.): ++ (high protective effect (THLE duration <1, seizure score 0))
- PTZ-Induced Seizure % Protection against GTCS ([8]; 15 mg/kg i.p.): 100%
- PTZ-Induced Seizure Average Seizure Score ([8]; 15 mg/kg i.p.): 0.00 ± 0.00 ^&
- main metabolic pathway [9]: double-hydroxylation at the 6-n-hexylazepane moiety

Compound: CC1CCCN(CCCCCCOc2ccc(C(=O)c3ccccc3)cc2)C1.O=C(O)C(=O)O (centres unmarked) [Ligand 6, (4-(6-(3-methylpiperidin-1-yl)hexyloxy)phenyl)(phenyl)methanone hydrogen oxalate]
- IC50 ([3]; human): 670 nM
- STR-Induced Seizure (protection class) [5]: −
- Ki [10]: 52.8 nM
- Ki [6]: 915 to 1340 nM
- MES-Induced Seizure (protection class) ([7]; 10 mg/kg i.p.): + (moderate protective effect (tonic hind limb extension (THLE) duration in the range of 2–5 s, seizure score in the range of 2–4))
- PTZ-Induced Seizure (protection class) ([8]; 10 mg/kg i.p.): −
